Experimental data: patent publication US12564588B2, “HECT E3 ubiquitin liagase inhibitors and uses thereof” (Northwestern University, priority 2021, dated 2026)

Key:
[1] = target: T1, UBE3A (Homo sapiens, UniProt Q05086); assay: in vitro ubiquitination assay (polyubiquitination of S5A); format: biochemical; settings: for IC50: S5A polyubiquitination, varying concentrations, estimated / preliminary; for inhibition of UBE3A-mediated polyubiquitination of S5A: compound at 100 μM, western/immunoblot readout
T1 sequence (Q05086 24-875 limits assumed): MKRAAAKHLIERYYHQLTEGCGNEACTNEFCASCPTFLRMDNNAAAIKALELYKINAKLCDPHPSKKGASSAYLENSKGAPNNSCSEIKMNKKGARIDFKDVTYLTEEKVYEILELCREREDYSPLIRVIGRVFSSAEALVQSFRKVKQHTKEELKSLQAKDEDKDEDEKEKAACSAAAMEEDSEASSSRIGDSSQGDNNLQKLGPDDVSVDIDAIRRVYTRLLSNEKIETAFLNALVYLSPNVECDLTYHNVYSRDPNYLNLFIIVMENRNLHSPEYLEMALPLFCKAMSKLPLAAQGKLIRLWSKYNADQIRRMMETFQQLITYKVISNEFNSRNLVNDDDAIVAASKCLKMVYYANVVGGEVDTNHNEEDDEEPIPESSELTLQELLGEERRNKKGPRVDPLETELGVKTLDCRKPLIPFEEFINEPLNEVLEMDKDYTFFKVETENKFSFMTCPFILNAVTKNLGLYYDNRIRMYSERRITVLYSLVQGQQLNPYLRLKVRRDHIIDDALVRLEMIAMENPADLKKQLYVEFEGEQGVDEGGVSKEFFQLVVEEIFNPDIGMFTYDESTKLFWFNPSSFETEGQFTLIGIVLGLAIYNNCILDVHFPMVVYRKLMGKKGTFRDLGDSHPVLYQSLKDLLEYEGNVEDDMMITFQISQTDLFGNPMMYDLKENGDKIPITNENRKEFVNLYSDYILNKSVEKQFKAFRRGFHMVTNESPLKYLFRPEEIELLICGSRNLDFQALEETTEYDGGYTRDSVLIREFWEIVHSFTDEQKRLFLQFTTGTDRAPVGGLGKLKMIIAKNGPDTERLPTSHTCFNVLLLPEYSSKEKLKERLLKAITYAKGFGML
Procedure: FIG. 3A-B. Identification of a potential UBE3A inhibitor compound by in vitro ubiquitination assay. (A). Purified UBA1 (E1), UBE2L3 (E2) and UBE3A (E3) were pre-incubated with each compound at 100 uM, followed by incubation with purified ubiquitin (Ub) and S5A in the presence of ATP. […] NC, negative control without active UBE3A; PC, positive control with active UBE3A but with no small molecule. (B). Structure of #3 compound (Zinc 23375107).
FIG. 4A-B. Screening for compounds that are structurally analogous to #3 compound and could bind to the druggable hotspot of the UBE3A HECT domain. Left panel (A): Purified UBA1 (E1), UBE2L3 (E2) and UBE3A (E3) were pre-incubated with structural analogs of #3 compound at 100 μM, followed by incubation with purified ubiquitin (Ub) and S5A in the presence of ATP.
FIG. 5A-B. Inhibition of the E3 activity of UBE3A by various concentrations of compound #3 and #3-1. The UBE3A activity was assayed by the in vitro ubiquitination assay using S5A as a substrate and the indicated concentrations of compound #3 (A) or #3-1 (B). The polyubiquitinated forms of S5A were quantified by western analysis.
We purchased 35 compounds among the 46 hits identified by the initial virtual screen, and tested their abilities to modulate the ubiquitin ligase activity of UBE3A. The in vitro ubiquitination assay was developed using purified ubiquitin (Ub), Uba1 (E1), UbcH7/UBE2L3 (E2), UBE3A (E3), and S5A/Angiocidin/PSMD4 (substrate), as a modification of our previously reported assay (19). The purchased compounds were dissolved in DMSO to generate a stock solution at 10 mM, and then their effects on UBE3A activity were tested by adding each compound at a final concentration of 100 μM. E1, E2 and E3 enzymes were first pre-incubated at 37° C. for 30 min in a buffer containing MgCl2, ATP and each compound. Subsequently, ubiquitin and S5A were added to the reaction and incubated for 60 more minutes. Samples were then analyzed by SDS-PAGE and immunoblotting, and polyubiquitination of the substrate S5A was determined as specific appearance of forms of anti-S5A immunoreactivity at higher molecular weights.

[2] = target: T1, UBE3A; settings: blocks UBE3A oligomerization by substituting Phe727; cited from earlier work
[3] = target: T2, recombinant UBE3A HECT domain (Homo sapiens, UniProt Q05086); assay: fluorescence thermal shift analysis (FTS); format: binding; settings: 0.5 uM UBE3A, Hepes buffer pH7.5, Tm shifted to lower temperature
T2 construct: a truncated UBE3A protein (residues 495-852 of isoform 1) using E. coli; made in house; host or cells: E. coli
T2 sequence (Q05086 518-875): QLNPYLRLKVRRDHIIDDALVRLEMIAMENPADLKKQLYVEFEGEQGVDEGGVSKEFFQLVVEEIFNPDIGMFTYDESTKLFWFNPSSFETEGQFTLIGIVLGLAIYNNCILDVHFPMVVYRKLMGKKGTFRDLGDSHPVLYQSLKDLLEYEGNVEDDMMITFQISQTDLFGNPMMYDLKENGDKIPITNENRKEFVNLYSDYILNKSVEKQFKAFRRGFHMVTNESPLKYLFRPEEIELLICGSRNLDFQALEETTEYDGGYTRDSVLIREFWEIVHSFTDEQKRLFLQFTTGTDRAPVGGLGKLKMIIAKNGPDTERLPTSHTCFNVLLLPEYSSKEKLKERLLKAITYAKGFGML
Text: FIG. 6A-B. Fluorescence thermal shift analysis of recombinant UBE3A HECT domain with the compound #3-1. (A) Melting curves of recombinant UBE3A HECT domain with multiple concentrations of #3-1 show the melting temperature Tm was shifted to lower temperature progressively with increase in #3-1 concentration. The rise of pre-transition background reading indicates destabilizing of the protein by the small molecule inhibitor, which is consists with the decrease of Tm by the compound. (B) Plot of normalized melting curves with respect to compound concentrations. The compound #3-1 shifts the melting temperature in a significant fashion, indicating specific binding. For example, the Tm is shifted 2.5 degree by 15 uM #3-1 and 5.1 degree by 25 uM #3-1 from the reference value. The test was done with 0.5 uM UBE3A in Hepes buffer (20 mM Hepes, 150 mM NaCl, pH7.5).
To verify the physical interaction between the HECT domain of UBE3A and the identified compounds and also develop a high throughput assay for further screening, we have developed a fluorescence thermal shift analysis (FTS). we have prepared a truncated UBE3A protein (residues 495-852 of isoform 1) using E. coli and performed preliminary FTS test (FIG. 6). […] Small molecule binding affects protein thermal stability, therefore can be detected through a shift in protein's thermal denaturation (melting) temperature (Tm).

[4] = tested on: HeLa cells; assay: cytotoxicity in HPV-positive cervical cancer cells (alamarBlue cell viability); format: cell-based; settings: Homo sapiens, 72 hrs incubation
Procedure: FIG. 7. Cytotoxicity of the hit compound #3-1 in HPV-positive cervical cancer cells. HPV18-positive human cervical cancer HeLa cells were incubated for 72 hrs with the compound #3-1 at the indicated concentrations, followed by determination of cell viability by the alamarBlue™ HS Cell Viability Reagent (Thermo). Data are shown as means±SEM, and the EC50 is estimated to be 30 μM.
We have recently tested whether the compound #3.1 exert any cytotoxic action in HPV-positive cancer cells. Human cervical carcinoma HeLa cells are a widely used HPV18-positive cell lines. We incubated HeLa cells with the compound #3.1 at various concentrations for 72 hours and determined viability of the cells (FIG. 7). This study has shown that the compound #3.1 exerts cytotoxicity in a dose-dependent manner with EC50 at 30 μM.

Structure (SMILES): COc1ccc(CNCC2CCOCC2)c(OCC(O)CN2CCN(C)CC2)c1 (stereo not shown) [#3, 1-(5-methoxy-2-{[(tetrahydro-2H-pyran-4-ylmethyl)amino]methyl}phenoxy)-3-(4-methyl-1-piperazinyl)-2-propanol]
- IC50 [1]: ~100 µM
- inhibition of UBE3A-mediated polyubiquitination of S5A [1]: inhibited formation of PolyUb-S5A
- inhibition of UBE3A-mediated polyubiquitination of S5A ([1]; listed as Zinc 23375107): significantly inhibits polyubiquitination of S5A

Structure (SMILES): CC(=O)N[C@@H](Cc1ccccc1)C(=O)O [N-acetyl phenylalanine]
- Ki [2]: 12000 µM

Structure (SMILES): COc1ccc(CNCc2cccc(C)c2)c(OCC(O)CN2CCN(C)CC2)c1 (stereo not shown) [#3-1, 1-(5-methoxy-2-{[(3-methylbenzyl)amino]methyl}phenoxy)-3-(4-methyl-1-piperazinyl)-2-propanol]
- IC50 [1]: ~10 µM
- inhibition of UBE3A-mediated polyubiquitination of S5A [1]: capable of inhibiting the UBE3A-mediated polyubiquitination of S5A substrate
- inhibition of UBE3A-mediated polyubiquitination of S5A ([1]; listed as #3.1): inhibited formation of PolyUb-S5A
- Tm shift from the reference value ([3]; 15 uM compound): 2.5 degree
- Tm shift from the reference value ([3]; 25 uM compound): 5.1 degree
- EC50 [4]: 30 µM
